Source: patent publication US4962125A, “Novel substance KS-619-1, preparation process and pharmaceutical composition” (Kyowa Hakko Kogyo, Co., Ltd., priority 1984, dated 1990)

Columns and labels:
[1] = system: rabbit mesenteric arteries; assay: Inhibition of KCl-induced contraction of surface-perfused, extirpated mesenteric arteries; assay type: cell-based, White bastard rabbits
Procedure: (1) Preparation of surface-perfused, extirpated mesenteric arteries
White bastard rabbits (male, 2-3 kg) were incised along the abdominal median line. […] The strips were ligated with silk yarn at both ends, and the lower end was connected to a stationary rod, whereas the upper end was connected to a […] transducer (SB-1T, product of Nippon Koden Co., Ltd.). Thus, the strips were suspended under an initial tension of 1.5 g. The preparation was kept at 37°±1° C. by means of peristaltic pump (Harvard 1210), while a gas (95% O2 and 5% CO2) was introduced therein. The surface of the preparation was perfused with a Krebs-Henseleit solution whose composition in g/l was NaCl: 6.92, KCl: 0.35, MgSO4.7H2 O: 0.29, CaCl2 : 0.28, KH2 PO4 : 0.16, NaHCO3 : 2.1 and glucose: 2.0 at a flow rate of 10 ml/min. After the preparation was stabilized for 1 to 2 hours, it was used for the experiment. Potassium chloride as a blood vessel-contracting substance was injected into flow of the perfusion solution through a cannula provided just before the preparation so that potassium chloride can have the ultimate concentration of 20 mM. The resulting contraction reaction was recorded on a polygraph (RM-45, product of Nippon Koden Co. Ltd.) in equal scales through the tension transducer. KS-619-1 was dissolved in ethanol to a concentration of 20 mg/ml, and the solution was properly diluted with a nutrient liquor and then continuously perfused from 10 minutes before the application of the contracting substance till the end of contraction reaction.
^(a) Inhibition percentage of contraction was calculated according to […]

[2] = Acute toxicity (LD50) in mice; conditions: mouse, in vivo
Procedure: The acute toxicity (LD50) of KS-619-1 in mice is more than 300 mg/kg·p.o. and more than 100 mg/kg·i.p.

[3] = Solubility; assay type: physicochemical

## CC(=O)Cc1cc2c(c(O)c1C(=O)O)-c1cc3c(c(O)c1CC2)C(=O)c1c(O)cc(O)cc1C3=O [KS-619-1]
[1]; Oryctolagus cuniculus, KS-619-1 0.3 μg/ml (ultimate concentration), contracting substance potassium chloride 20 mM, read-out: Inhibition percentage of contraction
  inhibition at 0.3 µg/mL: 33%
[1]; Oryctolagus cuniculus, KS-619-1 1.0 μg/ml (ultimate concentration), contracting substance potassium chloride 20 mM, read-out: Inhibition percentage of contraction
  inhibition at 1 µg/mL: 67%
[1]; potassium chloride 20 mM, 0.3 and 1.0 μg/ml
  inhibition of contraction of rabbit mesenteric arteries (in words): inhibited the contraction of rabbit mesenteric arteries, depending on the concentration
[2]; ip
  LD50: > 100 mg/kg
[2]; po
  LD50: > 300 mg/kg
[3]; in acetic acid
  Solubility: readily soluble
[3]; in chloroform and water
  Solubility: sparingly soluble
[3]; in methanol, ethanol, acetone, ethyl acetate and butanol
  Solubility: soluble
